Results on one substance are retold here after US9314485B2, “Use of PI3K M-TOR and AKT inhibitors to induce FOXP3 expression and generate regulatory T cells” (Medical Research Council, priority 2006, dated 2016).

Entries after “also recorded” stand apart in the source; their conditions may differ.

The test system of assay [1] is naive CD62LhiCD4+CD25− LN T cells. Description: Foxp3 induction in newly activated naive CD4 T cells (intracellular staining). The format is cell-based, mouse.
The test system of the next assay is Akt. The assay is described as follows: pAkt (S473) immunoblot in activated CD4 T cells. The format is cell-based, mouse. The settings on record: 18 h activated T cells. The procedure: To monitor the activity of the PI3K/mTOR axis in newly activated CD4 T cells we analysed phosphorylation of S6 ribosomal protein (pS6), a target of the mTOR-regulated p70 S6 kinase S6K1. TCR/CD28 signaling (but not anti-CD28 alone) induced high levels of pS6 (FIG. 10a). The maintenance of mTOR activity in 18 hour activated T cells required continued TCR signaling, since S6 phosphorylation declined when TCR signals were withdrawn (FIG. 10b). […] The serine/threonine protein kinase Akt/PKB is rapidly phosphorylated in response to signaling through TCR/CD28 but, in contrast to pS6, pAkt (S473) was no longer detected 18 h after initiation of TCR/CD28 signaling (FIG. 10c). […] Increased Akt phosphorylation in response to TCR signal deprivation and rapamycin treatment is incompatible with a traditional linear signaling pathway (FIG. 10d) but consistent with a network model in which Akt activity is controlled both by PDK1 and by mTORC2. In this model, mTORC2 (mTOR/rictor/Sin 1) is under negative feedback control of mTORC1 (mTOR/raptor) via S6K1, which phosphorylates and inhibits IRS1 (insulin receptor substrate 1) and reduces Akt activation via PI3K, PDK1 and mTORC2 (FIG. 10e). Applied to our data, withdrawal of TCR signaling lowers mTORC1 and S6K1 activity (FIG. 10b), which reduces feedback inhibition of mTORC2 and explains the observed increase in pAkt (S473) (FIG. 10c). […]

In the case of TGFβ, the “percentage of cells expressing Foxp3” value in assay [1] (added 18 hours after activation with TCR signal deprivation, read within 24-48 hours) was found to be 46.0±15.1%. In assay [1] (no costimulation, average of two experiments), the “% Foxp3+ cells, activation with anti-TCR only” value was 7%. Moreover, in assay [1] (serum free AIM-V medium, without anti TGFβ and SB431542, 24-48 hours / 2 days), the “Foxp3 expression in control cultures, TCR signal deprived cultures subtracted” value worked out at 22.3±7.0%. In addition, the “% Foxp3+ cells, activation with anti-TCR + anti-CD28” value in assay [1] (with costimulation, average of two experiments) was 46%. In addition, the “pAkt (S473)” value in the assay with Akt is “reappeared; also recorded: increased pAkt S473”.
